Assay results reported in patent US20260265329A1, “POLYPEPTIDE AND DERIVATIVE THEREOF, COMPOSITION, AND USE THEREOF” (HANGZHOU SCIWIND BIOSCIENCES CO., LTD., priority 2023, published 2026).
Each block holds one molecule with its values, some of them ahead of it. Starred links: 1 amine or outer side, 2 acyl side, 3 side chain; linkers in the order of their positions; H or OH if unused. Non-standard residues stand in square brackets, D forms with d. Residues, ends and D or L forms follow the SMILES beside them. *: point of attachment. C20 diacid = O=C(O)CCCCCCCCCCCCCCCCCCC(=O)*; γGlu = O=C(O)[C@H](CCC(=O)[*:2])N[*:1]; Hyp = O=C(O)[C@@H]1C[C@@H](O)CN1

Columns and labels:
[1] = Heat accelerated stability assay, 40° C., detection on 10 d and 20 d; assay type: physicochemical; details: 1 mg/mL, pH about 7.4, 40° C.
Procedure, shortened: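 Polypeptide derivatives at 1 mg/mL with sodium dihydrogen phosphate (1.42 mg/mL) in water, pH ~7.4, sterile-filtered and held at 40° C. Sampled at 10 d and 20 d, centrifuged, and supernatant analysed by HPLC (214 nm, 25° C., phosphate pH 5.8/ACN gradient) for concentration and purity.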

human amylin receptors = molecular target: T1, human amylin receptors (Homo sapiens, UniProt O60896+P30988); assay: Luciferase assay in stably transfected amylin receptor/CRE-luc CHO cell line; assay type: cell-based; details: for Relative activity: EC50 ratio of Cagrilintide to the compound, Cagrilintide 100%; for EC50: amylin receptor/CRE-luc CHO cells, 24 hours incubation, luminescence
T1 construct: host or cells: CHO-K1/Ga15/AMY3 cells, further stably transfected with a CRE-luciferase plasmid
T1 sequence (P30988 25-474): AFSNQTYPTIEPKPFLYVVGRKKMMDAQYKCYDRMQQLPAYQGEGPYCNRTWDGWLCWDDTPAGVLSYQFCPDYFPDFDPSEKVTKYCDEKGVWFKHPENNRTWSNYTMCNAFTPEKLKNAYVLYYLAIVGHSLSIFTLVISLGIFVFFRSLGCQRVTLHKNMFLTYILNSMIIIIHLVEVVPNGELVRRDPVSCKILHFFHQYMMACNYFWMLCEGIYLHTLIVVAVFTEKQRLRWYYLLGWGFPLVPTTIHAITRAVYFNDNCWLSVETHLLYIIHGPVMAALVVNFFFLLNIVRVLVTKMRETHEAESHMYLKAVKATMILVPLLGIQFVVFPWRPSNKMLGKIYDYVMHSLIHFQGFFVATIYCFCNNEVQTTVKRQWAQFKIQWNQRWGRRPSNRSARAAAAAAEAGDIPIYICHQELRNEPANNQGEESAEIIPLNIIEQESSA
T1 sequence (O60896 24-148 partner): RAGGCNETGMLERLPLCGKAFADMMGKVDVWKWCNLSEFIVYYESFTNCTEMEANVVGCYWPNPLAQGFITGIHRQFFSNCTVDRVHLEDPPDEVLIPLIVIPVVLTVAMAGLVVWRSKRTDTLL

[2] = Efficacy assay in SD rats, dose-dependent study (Example 5); assay type: in vivo
Experimental: SPF male SD rats (7-8 weeks, 220-230 g) were employed in this study after health inspection and quarantine. The experimental animals were exposed to a room temperature of 20° C.-23° C. and a relative humidity of 40%-50%, and were provided with Co60 mouse reproduction feed 1035 and purified water supplied with water feeding bottles for free intake throughout the health inspection and quarantine and the study. […] Using a single dose administered via subcutaneous injection, the study lasted for a total of 6 days with the day of administration designated as Day 1/Time 0 (TO), wherein on Day 0, the initial body weight of the animals were recorded and the initial feed was added, and on Day 1-Day 5, the body weight of the studied animals as well as the remaining food were recorded daily for calculating the percentage of weight change and the amount of food intake, any anomalies during which were required to be recorded and reported. During the study, the rats were in good condition and no anomaly was observed. Weight change=(BWTn−BWT0)/BWT0* 100%, wherein BW represented the value of body weight, and T0 and Tn represented the time points of dosing and n hours post dose respectively. Dots in the figures were represented utilizing mean±standard error of the mean (SEM). Accumulated food intake was the total amount of food intake for each of the animals prior to a certain time point post dose.

in vivo = assay: in vivo; set-up: species or system SD rats; details: male, SD, rat, sc, 1 mg/kg
Experimental: The animals received a subcutaneous injection of corresponding compounds for testing (1 mg/kg and 5 ml/kg), and the day of administration was designated as D1. The whole blood of the animals was collected pre dose (-10 min) on D1 and post dose at D1-2h, D1-4h, D1-6h, D2-24h, D3-48h, D4-72h, D5-96h, and D6-120 h and was processed into plasma (using EDTA for anticoagulation). Liquid chromatography-tandem mass spectrometry (LC-MS/MS) was used to detect the concentration of drug molecules in the plasma, and GraphPad Prism 10 was utilized to plot a concentration-time curve for the drugs whose pharmacokinetic parameters including Cmax, Tmax, T1/2, AUC, and MRT were then calculated with PKSolver.

[3] = Efficacy assay in DIO SD rats, dose-dependent study (Example 6); assay type: in vivo
Experimental: SPF male DIO SD rats (36-37 weeks, […], fed with high-fat diet for 34 weeks from 3-week age on) were employed in this study. The experimental animals were exposed to a room temperature of 20° C.-23° C. and a relative humidity of 40%-50%, and were provided with high-fat diet D12492 and purified water supplied with water feeding bottles for free intake throughout the construction of the DIO animal model and the study. Based on their mean body weight, the animals were assigned to 6 groups designated as B1-B6 (n=5). Administration via subcutaneous injection was conducted once a day for 10 continuous days, wherein the first day of administration was designated as Day 1 (D1), and on Day 0, the initial body weight of the animals were recorded and the initial feed was added, and on Day 1-Day 11, the body weight of the studied animals as well as the remaining food were recorded daily for calculating the percentage of weight change and the amount of food intake, any anomalies during which were required to be recorded and reported. During the study, the rats were in good condition and no anomaly was observed. Weight change=(BWDn−BWD1)/BWD1*100%, wherein BW represented the value of body weight, and D1 and Dn represented the first and Nth days of administration respectively. Dots in the figures were represented utilizing mean±standard error of the mean (SEM). Accumulated food intake was the total amount of food intake for animals of each group prior to a certain time point post dose.

[4] = background statement; cited from earlier work
[5] = Animal study in SD rats (Example 4), weight change and food consumption; assay type: in vivo; details: 30 nmol/kg subcutaneous (FIGS. 2A, 2B)
Experimental: SPF male SD rats (7-8 weeks, 200-250 g) were employed in this study after health inspection and quarantine. The experimental animals were exposed to a room temperature of 20° C.-23° C. and a relative humidity of 40%-50%, and were provided with Co60 mouse reproduction feed 1035 and purified water supplied with water feeding bottles for free intake throughout the health inspection and quarantine and the study. Based on their mean body weight, 5 rats were assigned to each testing group for the derivatives. The rats were subcutaneously administered the derivatives at a dose of 30 nmol/kg or a vehicle (PBS pH7.4), and the dosing timepoint was recorded for each group. After dosing, the rats were put back into cages where they lived and could have access to food and water. Food consumption and weight change of the rats were recorded online or manually every 24 hours.

[6] = Heat accelerated stability assay, 40° C., detection on 7 d and 28 d; assay type: physicochemical
Procedure, shortened: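 Derivatives at 1 mg/mL in water with sodium dihydrogen phosphate (1.42 mg/mL), pH about 7.4, sterile-filtered, stored sealed at 40° C. On days 7 and 28, appearance noted; after centrifugation, supernatant concentration and purity measured by reversed-phase HPLC at 214 nm (water/0.05% TFA–acetonitrile gradient).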

[7] = single subcutaneous dose 10, 30, 100 nmol/kg (FIGS. 3A-3D)
[8] = subcutaneous once a day for 10 days, 3 and 10 nmol/kg (FIGS. 4A, 4B)

Reduction in purity, 10 d ([1]; 10 d): 2.93%
Reduction in purity, 20 d ([1]; 20 d): 4.26%
Relative activity (human amylin receptors): 113%
EC50 (human amylin receptors): 0.08 nM
AUC(0-inf) (in vivo): 257 µg·h/mL
AUC(0-t) (in vivo): 250 µg·h/mL
Cmax (in vivo): 4780 ng/mL
MRT inf (in vivo): 45.9 h
Tmax (in vivo): 24 h
half-life (in vivo): 23.7 h
Structure (SMILES): CC[C@H](C)[C@H](NC(=O)[C@@H]1CCCN1C(=O)[C@H](CCCCN)NC(=O)[C@H](CC(C)C)NC(=O)[C@H](CCC(N)=O)NC(=O)[C@H](CCC(N)=O)NC(=O)[C@H](CO)NC(=O)[C@H](CO)NC(=O)[C@H](Cc1c[nH]cn1)NC(=O)[C@H](CCCNC(=N)N)NC(=O)[C@H](CC(C)C)NC(=O)[C@H](Cc1ccccc1)NC(=O)[C@H](CC(=O)O)NC(=O)[C@H](C)NC(=O)[C@H](CC(C)C)NC(=O)[C@H](CCCNC(=N)N)NC(=O)[C@H](CCC(N)=O)NC(=O)[C@@H](NC(=O)[C@H](C)NC(=O)[C@H](C)NC(=O)[C@@H](NC(=O)[C@H](CO)NC(=O)[C@H](CC(C)C)NC(=O)[C@H](CCC(N)=O)NC(=O)[C@H](CO)NC(=O)[C@H](C)NC(=O)CC[C@H](NC(=O)CCCCCCCCCCCCCCCCCCC(=O)O)C(=O)O)[C@@H](C)O)[C@@H](C)O)C(=O)N[C@@H](CC(C)C)C(=O)N1CCC[C@H]1C(=O)N1CCC[C@H]1C(=O)N[C@H](C(=O)N[C@@H](CC(N)=O)C(=O)N[C@H](C(=O)NCC(=O)N[C@@H](CO)C(=O)N[C@@H](CC(N)=O)C(=O)N[C@H](C(=O)N1C[C@H](O)C[C@H]1C(N)=O)[C@@H](C)O)C(C)C)[C@@H](C)O [M41] ({C20 diacid-γGlu}-ASQLSTAATQRLADFLRHSSQQLKPILPPTNVGSNT[Hyp]-NH2)
Body weight and food intake reduction compared with Cagrilintide ([2]; equivalent dosage): performed better than Cagrilintide at the equivalent dosage
Effect on body weight [2, 7]: dose-dependently reduced
Effect on food intake [2, 7]: dose-dependently reduced
Body weight and food intake reduction compared with Cagrilintide ([3]; equivalent dosage): performed better than Cagrilintide at the equivalent dosage
Effect on body weight [3, 8]: dose-dependently reduced
Effect on food intake [3, 8]: dose-dependently reduced

Structure (SMILES): CC[C@H](C)[C@H](NC(=O)[C@@H]1CCCN1C(=O)CNC(=O)[C@H](Cc1ccccc1)NC(=O)[C@H](CC(N)=O)NC(=O)[C@H](CC(N)=O)NC(=O)[C@H](CO)NC(=O)[C@H](CO)NC(=O)[C@H](Cc1c[nH]cn1)NC(=O)[C@@H](NC(=O)[C@H](CC(C)C)NC(=O)[C@H](Cc1ccccc1)NC(=O)[C@H](CC(N)=O)NC(=O)[C@H](C)NC(=O)[C@H](CC(C)C)NC(=O)[C@H](CCCNC(=N)N)NC(=O)[C@H](CCC(N)=O)NC(=O)[C@@H](NC(=O)[C@H](C)NC(=O)[C@@H]1CSSC[C@H](NC(=O)[C@@H](N)CCCCN)C(=O)N[C@@H](CC(N)=O)C(=O)N[C@@H]([C@@H](C)O)C(=O)N[C@@H](C)C(=O)N[C@@H]([C@@H](C)O)C(=O)N1)[C@@H](C)O)C(C)C)C(=O)N[C@@H](CC(C)C)C(=O)N1CCC[C@H]1C(=O)N1CCC[C@H]1C(=O)N[C@H](C(=O)N[C@@H](CC(N)=O)C(=O)N[C@H](C(=O)NCC(=O)N[C@@H](CO)C(=O)N[C@@H](CC(N)=O)C(=O)N[C@H](C(=O)N[C@@H](Cc1ccc(O)cc1)C(N)=O)[C@@H](C)O)C(C)C)[C@@H](C)O [Pramlintide]
fibrillation [4]: fibrillates at pH 7

Relative activity (human amylin receptors): 62%
EC50 (human amylin receptors): 0.042 nM
Purity from the reversed phase chromatography-214 nm, 0 d ([6]; 1 mg/mL, pH about 7.4, 40° C., 0 d): 91.52
Purity from the reversed phase chromatography-214 nm, 7 d ([6]; 1 mg/mL, pH about 7.4, 40° C., 7 d): 90.98
Purity from the reversed phase chromatography-214 nm, 28 d ([6]; 1 mg/mL, pH about 7.4, 40° C., 28 d): 92.33
Change of spectra of reversed phase chromatography after heat acceleration ([6]; after 7 days or even 1 month, 40° C. (FIG. 1)): almost no change
Change (7 d − 0 d) ([6]; purity on 7 d − purity on 0 d, 40° C., pH about 7.4): −0.54
Change (28 d − 0 d) ([6]; purity on 28 d − purity on 0 d, 40° C., pH about 7.4): 0.81
Structure (SMILES): CC[C@H](C)[C@H](NC(=O)[C@H](CC(=O)O)NC(=O)[C@H](CCCNC(=N)N)NC(=O)[C@H](CC(=O)O)NC(=O)[C@H](CCCNC(=N)N)NC(=O)[C@H](CC(=O)O)NC(=O)[C@@H](NC(=O)[C@H](Cc1ccccc1)NC(=O)[C@H](Cc1c[nH]cn1)NC(=O)[C@H](CCCNC(=N)N)NC(=O)[C@H](CC(C)C)NC(=O)[C@H](Cc1ccccc1)NC(=O)[C@H](CC(=O)O)NC(=O)[C@H](C)NC(=O)[C@H](CC(C)C)NC(=O)[C@H](CCCNC(=N)N)NC(=O)[C@H](CCC(N)=O)NC(=O)[C@@H](NC(=O)[C@H](C)NC(=O)[C@H](C)NC(=O)[C@@H](NC(=O)[C@H](CO)NC(=O)[C@H](CC(C)C)NC(=O)[C@H](CCC(N)=O)NC(=O)[C@H](CO)NC(=O)[C@H](C)NC(=O)CC[C@H](NC(=O)CCCCCCCCCCCCCCCCCCC(=O)O)C(=O)O)[C@@H](C)O)[C@@H](C)O)[C@@H](C)O)C(=O)N[C@@H](CC(C)C)C(=O)N1CCC[C@H]1C(=O)N1CCC[C@H]1C(=O)N[C@H](C(=O)N[C@@H](CC(N)=O)C(=O)N[C@H](C(=O)NCC(=O)N[C@@H](CO)C(=O)N[C@@H](CC(N)=O)C(=O)N[C@H](C(=O)N1CCC[C@H]1C(N)=O)[C@@H](C)O)C(C)C)[C@@H](C)O [M6] ({C20 diacid-γGlu}-ASQLSTAATQRLADFLRHFTDRDRDILPPTNVGSNTP-NH2)
Activity on weight loss and food intake compared with Cagrilintide [5]: the most active one with an activity notably higher than Cagrilintide
